Assay results from US9452225B2, “GLP-1 prodrugs” (Novo Nordisk A/S, priority 2012, dated 2016).
Numbered stars: 1 amine (or outer) side, 2 acyl side, 3 side chain; on linkers, the order of the positions; unused ones are H or OH. Square brackets hold non-standard residues; d marks the D form. Side chains are listed from the residue outwards. Peptide text beside a SMILES is read from it. * marks the point of attachment. Lactoyl(3-(imidazol-4-yl)) = O=C([C@@H](O)Cc1c[nH]cn1)*; C18 diacid = O=C(O)CCCCCCCCCCCCCCCCC(=O)*; γGlu = O=C(O)[C@H](CCC(=O)[*:2])N[*:1]; AEEA = NCCOCCOCC(=O)O; Aib = CC(C)(N)C(=O)O

What was measured:
human GLP-1 receptor [1] = target: T1, human GLP-1 receptor (Homo sapiens, UniProt P43220); assay: In vitro potency, CRE luciferase reporter gene assay in whole BHK cells; format: cell-based; settings: 0% HSA
T1 construct: expressed in transfected cells; host or cells: BHK cells, clone FCW467-12A (parent line BHKTS13), membranes
T1 sequence (P43220 24-463): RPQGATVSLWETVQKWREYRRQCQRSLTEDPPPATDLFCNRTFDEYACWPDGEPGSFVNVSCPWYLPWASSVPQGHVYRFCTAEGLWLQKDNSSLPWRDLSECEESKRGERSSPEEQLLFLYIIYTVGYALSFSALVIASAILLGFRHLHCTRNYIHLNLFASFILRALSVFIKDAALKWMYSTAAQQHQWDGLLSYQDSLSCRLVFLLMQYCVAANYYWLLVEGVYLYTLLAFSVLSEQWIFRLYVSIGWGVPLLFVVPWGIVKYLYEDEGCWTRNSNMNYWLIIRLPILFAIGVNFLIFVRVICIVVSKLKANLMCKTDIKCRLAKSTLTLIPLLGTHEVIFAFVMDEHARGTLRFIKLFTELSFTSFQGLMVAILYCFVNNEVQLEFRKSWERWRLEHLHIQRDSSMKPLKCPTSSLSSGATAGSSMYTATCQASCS
Procedure: The purpose of this example is to test the activity, or potency, of, for example, the GLP-1 parent drugs of the prodrugs of the invention. The in vitro potency is the measure of human GLP-1 receptor activation in a whole cell assay. This method is an alternative to the method of Example 8.
In vitro potency was determined by measuring the response of the human GLP-1 receptor in a reporter gene assay. The assay was performed in a stably transfected BHK cell line that expresses the human GLP-1 receptor and contains the DNA for the cAMP response element (CRE) coupled to a promoter and the gene for firefly luciferase (CRE luciferase). When the human GLP-1 receptor is activated it results in the production of cAMP, which in turn results in the luciferase protein being expressed. When assay incubation is completed the luciferase substrate (luciferin) is added and the enzyme converts luciferin to oxyluciferin to produce bioluminescence. The luminescence is measured as the readout for the assay.
In order to test the binding of the derivatives to albumin, the assay may if desired be performed in the absence of serum albumin as well as in the presence of a considerably higher concentration of serum albumin (1.0% final assay concentration). […]
3) The cells were counted and adjusted to 5×10^3 cells/50 μl (1×10^5 cells/ml) in Assay Medium. […]

human GLP-1 receptor [2] = target: T1, human GLP-1 receptor; assay: GLP-1 receptor binding, SPA displacement of 125I-GLP-1, low albumin; settings: low albumin (0.005% HSA)
Procedure: The purpose of this experiment is to test the receptor binding activity of the GLP-1 parent drugs of the prodrugs of the invention. The receptor binding is a measure of affinity of a parent drug for the human GLP-1 receptor. The parent GLP-1 drugs of Examples B2.1, B2.2, B2.3, B2.4, and B2.5 were tested as described below.
The receptor binding of the GLP-1 drugs to the human GLP-1 receptor was measured in a competitive binding assay. In this type of assay a labelled ligand (in this case ^125I-GLP-1) is bound to the receptor. Each drug is added in a series of concentrations to isolated membranes containing the human GLP-1 receptor and displacement of the labelled ligand is monitored. The receptor binding is reported as the concentration at which half of the labelled ligand is displaced from the receptor, the IC50 value. […]
The cells were grown at 5% CO2 in DMEM, 10% fetal calf serum, 1% Pen/Strep (Penicillin/Streptomycin) and 1.0 mg/ml of the selection marker G418. […] The resulting pellet was re-suspended in buffer 2 and the protein concentration was determined. […]

Row | Structure (SMILES) | EC50 (human GLP-1 receptor [1]) [pM] | IC50 (human GLP-1 receptor [2]) [nM]
1 | CC[C@H](C)[C@H](NC(=O)[C@H](Cc1ccccc1)NC(=O)[C@H](CCC(=O)O)NC(=O)[C@H](CCCCNC(=O)COCCOCCNC(=O)COCCOCCNC(=O)CC[C@H](NC(=O)CCCCCCCCCCCCCCCCC(=O)O)C(=O)O)NC(=O)[C@H](C)NC(=O)[C@H](C)NC(=O)[C@H](CCCNC(=N)N)NC(=O)CNC(=O)[C@H](CCC(=O)O)NC(=O)[C@H](CC(C)C)NC(=O)[C@H](Cc1ccc(O)cc1)NC(=O)[C@H](CO)NC(=O)[C@H](CO)NC(=O)[C@@H](NC(=O)[C@H](CC(=O)O)NC(=O)[C@H](CO)NC(=O)[C@@H](NC(=O)[C@H](Cc1ccccc1)NC(=O)[C@@H](NC(=O)CNC(=O)[C@H](CCC(=O)O)NC(=O)C(C)(C)NC(=O)[C@@H](O)Cc1c[nH]cn1)[C@@H](C)O)[C@@H](C)O)C(C)C)C(=O)N[C@@H](C)C(=O)N[C@@H](Cc1c[nH]c2ccccc12)C(=O)N[C@@H](CC(C)C)C(=O)N[C@H](C(=O)N[C@@H](CCCNC(=N)N)C(=O)NCC(=O)N[C@@H](CCCNC(=N)N)C(=O)NCC(=O)O)C(C)C [Example B2.5, N^ε26 [(S)-(22,40-dicarboxy-10,19,24-trioxo-3,6,12,15-tetraoxa-9,18,23-triazatetracontan-1-oyl)]-N^α8-{3-[(2S)-2-hydroxy-3-(1H-imidazol-4-yl)propanoyl}-Aib^8,Arg^23,Arg^34]-GLP-1-(8-37)-peptide] ({Lactoyl(3-(imidazol-4-yl))}-[Aib]EGTFTSDVSSYLEGRAAK([AEEA-AEEA-γGlu-C18 diacid])EFIAWLVRGRG-OH; C-terminus assumed) | 31 | 0.22
2 | CC[C@H](C)[C@H](NC(=O)[C@H](Cc1ccccc1)NC(=O)[C@H](CCCCNC(=O)COCCOCCNC(=O)COCCOCCNC(=O)CC[C@H](NC(=O)CCCCCCCCCCCCCCCCC(=O)O)C(=O)O)NC(=O)[C@H](CCCNC(=N)N)NC(=O)[C@H](C)NC(=O)[C@H](C)NC(=O)[C@H](CCC(N)=O)NC(=O)[C@H](CCC(=O)O)NC(=O)[C@H](CCC(=O)O)NC(=O)[C@H](CC(C)C)NC(=O)[C@H](Cc1ccc(O)cc1)NC(=O)[C@H](CO)NC(=O)[C@H](CO)NC(=O)[C@@H](NC(=O)[C@H](CC(=O)O)NC(=O)[C@H](CO)NC(=O)[C@@H](NC(=O)[C@H](Cc1ccccc1)NC(=O)[C@@H](NC(=O)CNC(=O)[C@H](CCC(=O)O)NC(=O)C(C)(C)NC(=O)[C@@H](O)Cc1c[nH]cn1)[C@@H](C)O)[C@@H](C)O)C(C)C)C(=O)N[C@@H](C)C(=O)N[C@@H](Cc1c[nH]c2ccccc12)C(=O)N[C@@H](CC(C)C)C(=O)N[C@H](C(=O)N[C@@H](CCCNC(=N)N)C(=O)NCC(=O)N[C@@H](CCCNC(=N)N)C(=O)NCC(=O)O)C(C)C [Example B2.4, N^ε27 [(S)-(22,40-dicarboxy-10,19,24-trioxo-3,6,12,15-tetraoxa-9,18,23-triazatetracontan-1-oyl)]-N^α8-{3-[(2S)-2-hydroxy-3-(1H-imidazol-4-yl)propanoyl}-Aib^8,Glu^22,Arg^26,Lys^27,Arg^34]-GLP-1-(8-37)-peptide] ({Lactoyl(3-(imidazol-4-yl))}-[Aib]EGTFTSDVSSYLEEQAARK([AEEA-AEEA-γGlu-C18 diacid])FIAWLVRGRG-OH; C-terminus assumed) | 4 | 0.09
